# US20210255193A1, “LYSINE REACTIVE PROBES AND USES THEREOF” (The Scripps Research Institute, priority 2017, published 2021)
# Experiments:
# Test in all cases: competitive isoTOP-ABPP
# Assay type in all cases: binding
# [1] = biological target: T1, PNPO Pyridoxine-5-phosphate oxidase (Homo sapiens, UniProt Q9NVS9); conditions: for blockade of probe 1 labeling of K100: PNPO K100; for R value (DMSO/fragment) for probe 1 labeling: Q9NVS9_K100; for R value (DMSO/fragment) for probe 1 labeling / isoTOP-ABPP reactivity ratio at lysine Q9NVS9_K100 / isoTOP-ABPP ratio (R) at liganded lysine Q9NVS9_K100: 50 uM, in vitro; for R value (DMSO/fragment) for probe 1 labeling / isoTOP-ABPP reactivity ratio at lysine Q9NVS9_K100: 231 sol; for isoTOP-ABPP ratio (R) at liganded lysine Q9NVS9_K100: sol, 231
# T1 construct: endogenous in cells; host or cells: MDA-MB-231 (soluble fraction of lysate)
# T1 sequence (Q9NVS9 1-261): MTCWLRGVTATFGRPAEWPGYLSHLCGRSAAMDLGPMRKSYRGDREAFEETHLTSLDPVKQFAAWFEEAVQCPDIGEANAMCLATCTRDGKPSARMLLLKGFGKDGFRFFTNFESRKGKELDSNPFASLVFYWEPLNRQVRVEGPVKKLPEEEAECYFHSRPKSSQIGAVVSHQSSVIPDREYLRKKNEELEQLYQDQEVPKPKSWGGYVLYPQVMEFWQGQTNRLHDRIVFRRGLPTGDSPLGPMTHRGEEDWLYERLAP
# How it was run: (§1)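 Fragments at 50 μM (activated esters) or 100 μM (guanidinylating agents) were incubated with 0.5 ml lysate before probe labeling. After 0.1 mM STP-alkyne for 1 h, samples were clicked to isotopically distinct TEV tags, and R taken as DMSO-over-compound MS1 peak-area ratio.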
# [2] = biological target: T2, NPEPPS Puromycin-sensitive aminopeptidase (Homo sapiens, UniProt P55786); conditions: 50 uM, in vitro; for R value (DMSO/fragment) for probe 1 labeling: P55786_K712; for R value (DMSO/fragment) for probe 1 labeling / isoTOP-ABPP reactivity ratio at lysine P55786_K712: 231 sol; for isoTOP-ABPP ratio (R) at liganded lysine P55786_K712: sol, 231
# T2 construct: isoTOP-ABPP experiments performed in cell lysates (in vitro); endogenous in cells; host or cells: soluble proteome of human cancer cell lines (MDA-MB-231, Ramos, Jurkat)
# T2 sequence (P55786 whole entry, the tested form may be a part): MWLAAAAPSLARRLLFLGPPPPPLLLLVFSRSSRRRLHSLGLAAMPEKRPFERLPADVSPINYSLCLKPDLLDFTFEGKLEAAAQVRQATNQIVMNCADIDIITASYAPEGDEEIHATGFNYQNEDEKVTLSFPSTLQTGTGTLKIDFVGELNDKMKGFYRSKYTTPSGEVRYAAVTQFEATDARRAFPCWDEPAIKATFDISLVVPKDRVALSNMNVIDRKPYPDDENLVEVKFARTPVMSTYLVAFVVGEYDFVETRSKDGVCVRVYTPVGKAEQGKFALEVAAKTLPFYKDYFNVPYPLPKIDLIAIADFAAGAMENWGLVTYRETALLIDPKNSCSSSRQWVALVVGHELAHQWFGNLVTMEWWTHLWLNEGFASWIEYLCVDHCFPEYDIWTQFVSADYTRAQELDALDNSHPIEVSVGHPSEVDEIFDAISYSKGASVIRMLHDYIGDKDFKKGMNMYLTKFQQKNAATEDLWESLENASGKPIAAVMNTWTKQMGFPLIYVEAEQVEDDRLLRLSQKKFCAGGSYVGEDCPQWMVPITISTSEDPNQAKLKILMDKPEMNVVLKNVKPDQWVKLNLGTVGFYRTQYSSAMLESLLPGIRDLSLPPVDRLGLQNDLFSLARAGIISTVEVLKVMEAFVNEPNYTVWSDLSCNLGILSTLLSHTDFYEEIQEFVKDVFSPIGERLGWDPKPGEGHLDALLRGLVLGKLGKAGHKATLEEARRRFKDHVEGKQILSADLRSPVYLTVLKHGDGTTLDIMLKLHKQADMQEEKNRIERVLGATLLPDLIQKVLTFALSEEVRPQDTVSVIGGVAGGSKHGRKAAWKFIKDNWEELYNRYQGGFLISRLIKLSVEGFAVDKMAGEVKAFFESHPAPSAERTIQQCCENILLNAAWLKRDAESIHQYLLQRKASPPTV
# How it was run: as §1
# STRN3 Striatin-3 = biological target: T3, STRN3 Striatin-3 (Homo sapiens, UniProt Q13033); conditions: 50 uM, in vitro; for R value (DMSO/fragment) for probe 1 labeling: Q13033_K755; for R value (DMSO/fragment) for probe 1 labeling / isoTOP-ABPP reactivity ratio at lysine Q13033_K755: 231 sol; for isoTOP-ABPP ratio (R) at liganded lysine Q13033_K755: sol, 231
# T3 construct: isoTOP-ABPP experiments performed in cell lysates (in vitro); endogenous in cells; host or cells: soluble proteome of human cancer cell lines (MDA-MB-231, Ramos, Jurkat)
# T3 sequence (Q13033 1-797): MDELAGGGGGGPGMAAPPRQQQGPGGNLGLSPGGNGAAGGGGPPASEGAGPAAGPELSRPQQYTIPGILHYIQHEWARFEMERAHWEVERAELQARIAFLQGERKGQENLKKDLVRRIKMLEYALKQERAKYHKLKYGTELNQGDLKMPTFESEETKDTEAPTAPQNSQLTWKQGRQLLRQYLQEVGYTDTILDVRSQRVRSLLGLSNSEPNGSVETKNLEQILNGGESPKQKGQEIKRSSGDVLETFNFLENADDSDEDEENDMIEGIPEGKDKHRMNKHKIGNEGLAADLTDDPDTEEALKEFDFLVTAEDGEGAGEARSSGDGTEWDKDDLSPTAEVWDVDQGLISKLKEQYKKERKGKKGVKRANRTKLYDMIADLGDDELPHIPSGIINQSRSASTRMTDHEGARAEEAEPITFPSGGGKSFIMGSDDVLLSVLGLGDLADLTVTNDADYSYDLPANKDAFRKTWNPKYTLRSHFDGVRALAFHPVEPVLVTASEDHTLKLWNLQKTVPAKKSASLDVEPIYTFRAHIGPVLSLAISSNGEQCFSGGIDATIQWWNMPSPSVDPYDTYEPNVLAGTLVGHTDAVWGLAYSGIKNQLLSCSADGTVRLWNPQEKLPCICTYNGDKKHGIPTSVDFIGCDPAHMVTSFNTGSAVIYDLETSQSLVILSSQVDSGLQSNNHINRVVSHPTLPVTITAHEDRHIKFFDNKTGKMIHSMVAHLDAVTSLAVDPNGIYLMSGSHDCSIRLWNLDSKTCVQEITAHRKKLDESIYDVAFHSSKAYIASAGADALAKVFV
# How it was run: as §1
# [3] = biological target: T4, GLUD1 Glutamate dehydrogenase 1, mitochondrial (Homo sapiens, UniProt P00367); conditions: 50 uM, in vitro; for R value (DMSO/fragment) for probe 1 labeling: P00367_K480; for R value (DMSO/fragment) for probe 1 labeling / isoTOP-ABPP reactivity ratio at lysine P00367_K480: 231 sol; for isoTOP-ABPP ratio (R) at liganded lysine P00367_K480: sol, 231
# T4 construct: isoTOP-ABPP experiments performed in cell lysates (in vitro); endogenous in cells; host or cells: MDA-MB-231 soluble lysate
# T4 sequence (P00367 54-558): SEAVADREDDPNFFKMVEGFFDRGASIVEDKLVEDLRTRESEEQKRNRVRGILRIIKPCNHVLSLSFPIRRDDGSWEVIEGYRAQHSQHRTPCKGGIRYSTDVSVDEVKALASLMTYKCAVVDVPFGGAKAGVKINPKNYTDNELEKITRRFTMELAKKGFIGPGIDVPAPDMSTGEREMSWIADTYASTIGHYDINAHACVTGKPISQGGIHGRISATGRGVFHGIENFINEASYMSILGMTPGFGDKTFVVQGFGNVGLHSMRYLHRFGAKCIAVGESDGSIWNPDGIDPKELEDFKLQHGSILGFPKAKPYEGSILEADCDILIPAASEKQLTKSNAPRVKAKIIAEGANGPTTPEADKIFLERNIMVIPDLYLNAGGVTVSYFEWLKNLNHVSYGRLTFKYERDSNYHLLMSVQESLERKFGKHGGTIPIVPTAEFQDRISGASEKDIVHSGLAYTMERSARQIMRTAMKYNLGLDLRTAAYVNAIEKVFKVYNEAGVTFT
# How it was run: as §1
# DCTN2 Dynactin subunit 2 = biological target: T5, DCTN2 Dynactin subunit 2 (Homo sapiens, UniProt Q13561); conditions: 50 uM, in vitro; for R value (DMSO/fragment) for probe 1 labeling: Q13561_K175; for R value (DMSO/fragment) for probe 1 labeling / isoTOP-ABPP reactivity ratio at lysine Q13561_K175: 231 sol
# T5 construct: isoTOP-ABPP experiments performed in cell lysates (in vitro); endogenous in cells; host or cells: soluble proteome of human cancer cell lines (MDA-MB-231, Ramos, Jurkat)
# T5 sequence (Q13561 whole entry, the tested form may be a part): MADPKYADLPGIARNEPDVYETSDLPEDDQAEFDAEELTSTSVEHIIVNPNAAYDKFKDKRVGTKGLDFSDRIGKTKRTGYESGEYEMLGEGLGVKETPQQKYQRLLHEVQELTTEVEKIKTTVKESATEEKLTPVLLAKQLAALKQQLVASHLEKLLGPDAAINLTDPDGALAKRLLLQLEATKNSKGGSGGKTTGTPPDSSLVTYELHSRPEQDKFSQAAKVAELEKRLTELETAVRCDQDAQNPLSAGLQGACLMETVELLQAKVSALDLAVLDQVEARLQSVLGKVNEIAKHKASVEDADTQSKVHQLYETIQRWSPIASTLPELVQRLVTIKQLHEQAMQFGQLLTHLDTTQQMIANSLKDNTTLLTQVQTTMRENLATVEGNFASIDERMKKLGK
# How it was run: as §1
SMILES,R value (DMSO/fragment) for probe 1 labeling [1],R value (DMSO/fragment) for probe 1 labeling [2],R value (DMSO/fragment) for probe 1 labeling (STRN3 Striatin-3),R value (DMSO/fragment) for probe 1 labeling [3],isoTOP-ABPP reactivity ratio at lysine Q9NVS9_K100 [1],isoTOP-ABPP reactivity ratio at lysine P55786_K712 [2],isoTOP-ABPP reactivity ratio at lysine Q13033_K755 (STRN3 Striatin-3),isoTOP-ABPP reactivity ratio at lysine Q13561_K175 (DCTN2 Dynactin subunit 2),isoTOP-ABPP reactivity ratio at lysine P00367_K480 [3],further results
"O=C(CCc1cn(-c2ccccc2)nc1-c1ccccc1)Oc1c(F)c(F)c(F)c(F)c1F [fragment 19, Pentafluorophenyl 3-(1,3-diphenyl-1H-pyrazol-4-yl)propanoate]",20.0,1.0,0.9,1.0,–,–,–,–,–,blockade of probe 1 labeling of K100 [1]: fully blocking probe 1 labeling
"O=C(Oc1c(F)c(F)c(F)c(F)c1F)C(c1ccccc1)c1ccccc1 [fragment 20, Pentafluorophenyl 2,2-diphenylacetate]",0.9,0.9,0.9,1.4,–,–,–,–,–,R value (DMSO/fragment) for probe 1 labeling (DCTN2 Dynactin subunit 2): 1.0
"O=C(Oc1c(F)c(F)c(F)c(F)c1F)c1cc(C(F)(F)F)cc(C(F)(F)F)c1 [fragment 21, Pentafluorophenyl 3,5-bis(trifluoromethyl)benzoate]",0.9,0.9,0.9,1.2,–,–,–,–,–,R value (DMSO/fragment) for probe 1 labeling (DCTN2 Dynactin subunit 2): 0.9
"Cn1cc(CC(=O)Oc2c(F)c(F)c(F)c(F)c2F)c2ccccc21 [fragment 22, Pentafluorophenyl 2-(1-methyl-1H-indol-3-yl)acetate]",20.0,1.3,1.0,2.5,–,–,–,–,–,blockade of probe 1 labeling of K100 [1]: fully blocking probe 1 labeling; R value (DMSO/fragment) for probe 1 labeling (DCTN2 Dynactin subunit 2): 1.7
"COc1cc(CCC(=O)Oc2c(F)c(F)c(F)c(F)c2F)cc(OC)c1OC [fragment 23, Pentafluorophenyl 3-(3,4,5-trimethoxyphenyl)propanoate]",1.8,1.2,1.2,1.8,–,–,–,–,–,R value (DMSO/fragment) for probe 1 labeling (DCTN2 Dynactin subunit 2): 1.1
"O=C(Oc1c(F)c(F)c(F)c(F)c1F)C1CCN(C(=O)OCc2ccccc2)CC1 [fragment 24, 1-Benzyl 4-(pentafluorophenyl) piperidine-1,4-dicarboxylate]",–,–,–,–,0.9,1.0,1.1,1.3,2.0,–
"O=C(Oc1c(F)c(F)c(F)c(F)c1F)c1ccc2ccccc2n1 [fragment 25, Pentafluorophenyl quinoline-2-carboxylate]",–,–,–,–,1.0,1.1,1.0,1.1,1.2,–
"O=C(CCc1coc2cc(F)ccc2c1=O)Oc1c(F)c(F)c(F)c(F)c1F [fragment 26, Pentafluorophenyl 3-(7-fluoro-4-oxo-4H-chromen-3-yl)propanoate]",–,–,–,–,1.4,1.2,1.0,1.6,1.6,–
"O=C(CN1C(=O)c2ccccc2C1=O)Oc1c(F)c(F)c(F)c(F)c1F [fragment 27, Pentafluorophenyl 2-(1,3-dioxoisoindolin-2-yl)acetate]",–,–,–,–,1.0,1.2,1.0,1.2,2.0,–
"CCn1cc(C(=O)Oc2c(F)c(F)c(F)c(F)c2F)c(=O)c2ccc(C)nc21 [fragment 28, Pentafluorophenyl 1-ethyl-7-methyl-4-oxo-1,4-dihydro-1,8-naphthyridine-3-carboxylate]",–,–,–,–,0.9,1.0,0.9,–,1.0,–
"O=C(CCc1cn(-c2ccccc2)nc1-c1ccccc1)Oc1ccc([N+](=O)[O-])cc1[N+](=O)[O-] [fragment 29, 2,4-Dinitrophenyl 3-(1,3-diphenyl-1H-pyrazol-4-yl)propanoate]",–,–,–,–,1.9,1.1,1.1,1.3,1.9,–
"O=C(Oc1ccc([N+](=O)[O-])cc1[N+](=O)[O-])C(c1ccccc1)c1ccccc1 [fragment 30, 2,4-Dinitrophenyl 2,2-diphenylacetate]",–,–,–,–,1.0,1.5,2.0,3.4,1.8,–
"O=C(Oc1ccc([N+](=O)[O-])cc1[N+](=O)[O-])c1cc(C(F)(F)F)cc(C(F)(F)F)c1 [fragment 31, 2,4-Dinitrophenyl 3,5-bis(trifluoromethyl)benzoate]",–,–,–,–,1.0,1.1,1.4,1.0,1.3,–
"O=C(CCc1coc2cc(F)ccc2c1=O)Oc1ccc([N+](=O)[O-])cc1[N+](=O)[O-] [fragment 36, 2,4-Dinitrophenyl 3-(7-fluoro-4-oxo-4H-chromen-3-yl)propanoate]",–,–,–,–,–,–,–,–,–,isoTOP-ABPP ratio (R) at liganded lysine Q9NVS9_K100 [1]: 1.0; isoTOP-ABPP ratio (R) at liganded lysine P55786_K712 [2]: 2.7; isoTOP-ABPP ratio (R) at liganded lysine Q13033_K755 (STRN3 Striatin-3): 1.3; isoTOP-ABPP ratio (R) at liganded lysine P00367_K480 [3]: 3.2
"O=C(CC12CC3CC(CC(C3)C1)C2)Oc1ccc([N+](=O)[O-])cc1[N+](=O)[O-] [fragment 38, 2,4-Dinitrophenyl 2-(adamantan-1-yl)acetate]",–,–,–,–,–,–,–,–,–,isoTOP-ABPP ratio (R) at liganded lysine Q9NVS9_K100 [1]: 0.9; isoTOP-ABPP ratio (R) at liganded lysine P55786_K712 [2]: 1.0; isoTOP-ABPP ratio (R) at liganded lysine Q13033_K755 (STRN3 Striatin-3): 0.9; isoTOP-ABPP ratio (R) at liganded lysine P00367_K480 [3]: 1.3
"CC(=O)Oc1ccc([N+](=O)[O-])cc1[N+](=O)[O-] [fragment 43, 2,4-Dinitrophenyl acetate]",–,–,–,–,–,–,–,–,–,"isoTOP-ABPP ratio (R) at liganded lysine Q9NVS9_K100 [1]: 1.0; isoTOP-ABPP ratio (R) at liganded lysine P55786_K712 [2]: 2.3; isoTOP-ABPP ratio (R) at liganded lysine Q13561_K175 (DCTN2 Dynactin subunit 2; sol, 231): 0.6; isoTOP-ABPP ratio (R) at liganded lysine P00367_K480 [3]: 3.9"
